Data reported in publication PMC11207729, “Unveiling Anticancer Potential of COX-2 and 5-LOX Inhibitors: Cytotoxicity, Radiosensitization Potential and Antimigratory Activity against Colorectal and Pancreatic Carcinoma” (Pharmaceutics, 2024).
Several values for one entry are separate records, joined by “and”; a condition that tells them apart may be missing. Equal values may be shown once.

Key:
HCT 116 cells = test: MTT cytotoxicity assay, HCT 116; format: cell-based, human; details: for IC50: Homo sapiens, HCT-116, MTT, 72 h after treatment, mean ± SEM; for Selectivity index (IC50 normal cell line/IC50 cancer cell lines), HCT 116: MRC-5 / HCT 116, in brackets
Experimental: (§1) SW620 cells were cultured in Dulbecco’s Modified Eagle’s medium (DMEM, Sigma-Aldrich Chemie GmbH, Steinheim, Germany) and supplemented in the same manner as the previously mentioned cell lines. Cells were grown in cell culture flasks T25 (Sarstedt AG & Co., Nümbrecht, Germany) at appropriate cell densities in the culture medium prior to exposure to treatments. Stock solutions of each compound, prepared in DMSO, were diluted in the culture medium to obtain the appropriate final concentrations.
(§2) The viability of the control and cells treated with the tested compounds was determined by MTT assay. Cells were seeded in 96-well plates at a density of 2000 cells/well, allowed to attach overnight, and then treated with rising concentrations of testing compounds. The ability of viable cells to reduce 3-(4,5-dimethylthiazol-2-yl)-2,5-diphenyltetrazolium bromide into blue-purple formazan crystals, was measured 72 h after the treatments. Namely, l mg/mL of MTT reagent (Sigma-Aldrich Chemie GmbH, Steinheim, Germany) was added to each well and incubated for an additional 4 h. Finally, upon removal of the medium containing MTT, 200 µL of DMSO was added to each well.

MRC-5 cells = test: MTT cytotoxicity assay, MRC-5 normal fibroblasts; format: cell-based, human; details: for IC50: MTT, 72 h after treatment, mean ± SEM, healthy cell line; for Selectivity index, MRC-5: MRC-5 / MRC-5 (reference value), in brackets
BxPC-3 cells = test: MTT cytotoxicity assay, BxPC-3; format: cell-based, human; details: for IC50: MTT, 72 h after treatment, mean ± SEM; for Selectivity index (IC50 normal cell line/IC50 cancer cell lines), BxPC-3: MRC-5 / BxPC-3, in brackets
Experimental: as §1, §2

HT-29 cells [1] = test: MTT cytotoxicity assay, HT-29; format: cell-based, human; details: for IC50: Homo sapiens, HT-29, MTT, 72 h after treatment, mean ± SEM; for Selectivity index (IC50 normal cell line/IC50 cancer cell lines), HT-29: MRC-5 / HT-29, in brackets
Experimental: as §1, §2

SW620 cells [2] = details: cited from earlier work
SW620 cells [3] = test: Wound-healing assay; format: cell-based, human; details: 25 μM; for Relative Wound Closure (%) 24 h: SW620, 24 h relative to T0, mean ± SEM, control 17.87 ± 3.48; for Relative Wound Closure (%) 48 h: SW620, 48 h relative to T0, mean ± SEM, control 24.51 ± 1.39
Experimental: The migratory potential of SW620 cells (human colon carcinoma cell line) was evaluated by a wound-healing assay. Cells were seeded in density of 300,000 cells per well in 24-well tissue culture microplates and grown for 24 h in DMEM medium supplemented with 10% FBS, penicillin/streptomycin and L-glutamine at 37 °C in a humidified atmosphere containing 5% CO2. Upon reaching confluence, a uniform wound was scratched into a monolayer of each well with a sterile plastic 200 μL micropipette tip. After wounding, the medium was replaced and cells were further treated with 25 μM of compounds 1, 2, 3, and 5 for 24 h and 48 h. Wound closure was monitored by imaging cells at 4× magnification using the ImageXpress® Pico Automated Cell Imaging System (Molecular Devices®, San Jose, CA, USA) immediately (T0), and at 24 h (T24) and 48 h (T48) after wounding. The captured images were analyzed by ImageJ software v. 1.52p (U.S. National Institutes of Health, Bethesda, MD, USA) to measure the degree of closure of the wounded area. Independent experiments were performed three times.

SW620 cells [4] = test: Cytotoxicity in SW620 cells after 24 h treatment (Table S2); format: cell-based; details: Homo sapiens, SW-620, read-out: IC50 (µM) following 24h treatment in SW620 cells
HT-29 cells [5] = test: SRB assay, compound plus γ-radiation, HT-29; format: cell-based, human; details: IC50 concentration 24 h before 2 Gy γ-radiation, SRB 72 h after irradiation
Experimental: In the experiments involving irradiation, cells were irradiated at room temperature, in the vertical position with the cell monolayer facing ^60Co γ-rays (CIRUS-Cis Biointernational). The irradiation of samples was performed in Vinča Institute of Nuclear Sciences, Belgrade, Serbia. In all experiments, a clinically relevant radiation dose of 2 Gy with the dose rate of ~1 Gy/min was applied.
For the evaluation of cell viability after treatments with radiation as well as after combined treatments, a sulforhodamine B (SRB) protein binding assay was used. This assay is based on the staining of cellular proteins. Maintaining conditions were identical to that of MTT assay. The cells were pretreated with IC50 concentrations of tested compounds for 24 h before irradiations. Following the 72 h post-irradiation incubation time under standard conditions (5% CO2, 37 °C) cells were fixed by protein precipitation with 10% trichloroacetic acid (TCA) at 4 °C for 1 h. Plates were rinsed with distillated water and stained with 0.4% SRB (Sigma-Aldrich Chemie GmbH, Steinheim, Germany) in 1% acetic acid, for 15 min at room temperature. Excess stain was removed by washing the wells in 1% acetic acid. After being rinsed, microwell plates were air dried until no staining moisture was visible. Bound dye was dissolved in 10 mM unbuffered Tris base (pH 10.5) for 5 min on a gyratory shaker. The absorbance of each well was measured using a microplate reader (Wallac VICTOR2 1420 Multilabel counter, PerkinElmer, Turku, Finland) at a test wavelength of 550 nm.

Row | SMILES | IC50 (HCT 116 cells) [µM] | IC50 (MRC-5 cells; Homo sapiens, MRC5, 72 h) [µM] | Selectivity index, MRC-5 (MRC-5 cells) | IC50 (MRC-5 cells) [µM] | IC50 (BxPC-3 cells; Homo sapiens, BXPC-3, 72 h) [µM] | Selectivity index (IC50 normal cell line/IC50 cancer cell lines), BxPC-3 (BxPC-3 cells) | IC50 (BxPC-3 cells) [µM] | IC50 (HT-29 cells [1]) [µM] | antimigratory effects on SW620 cell line (SW620 cells [2]; 10 nM, after 24 h) | Selectivity index (IC50 normal cell line/IC50 cancer cell lines), HCT 116 (HCT 116 cells) | Selectivity index (IC50 normal cell line/IC50 cancer cell lines), HT-29 (HT-29 cells [1]) | antimigratory properties in SW620 cells (SW620 cells [2]; 30 μM, 48 h) | migratory ability of SW620 cells (SW620 cells [2]; 400 μM, after 36 h) | Relative Wound Closure (%) 24 h (SW620 cells [3]) | Relative Wound Closure (%) 48 h (SW620 cells [3]) | IC50 (SW620 cells [4]) [µM] | cell proliferation, combined treatment versus radiation alone, HT-29 (HT-29 cells [5])
1 | COc1ccc2cc(C(C)N(O)C(C)=O)ccc2c1 (stereo not drawn) [Compound 12] | > 100 | > 100 | 1 | 63.6 ± 9.04 | > 100 | 0.83 | 76.7 ± 5.54 | > 100 | – | – | – | – | – | – | – | – | –
2 | CC(C(=O)O)c1ccc(-c2ccccc2)c(F)c1 (stereo not drawn) [Flurbiprofen, reference compound] | > 100 | > 100 | – | – | > 100 | – | – | > 100 | significant antimigratory effects | – | – | – | – | – | – | – | –
3 | CCOc1ccccc1NC(=O)Nc1ccc([N+](=O)[O-])cc1 [Compound 10] | 9.3 ± 0.38 | 18.7 ± 0.98 | 1 | – | 6.05 ± 1.68 | 3.09 | – | 7.08 ± 0.3 | – | 2.01 | 2.64 | – | – | – | – | – | –
4 | CN(C)C(=O)Nc1ccccc1C(=O)O [Compound 9] | > 100 | > 100 | – | – | > 100 | – | – | > 100 | – | – | – | – | – | – | – | – | –
5 | COC(=O)C(Cc1cnc[nH]1)NC(=O)c1cc(C(C)(C)C)c(O)c(C(C)(C)C)c1 (stereo not drawn) [Compound 4] | 29.5 ± 5.23 | 35.4 ± 4.14 | 1 | – | 24.7 ± 2.01 | 1.43 | – | 42.3 ± 2.57 | – | 1.20 | 0.84 | – | – | – | – | – | –
6 | Cc1ccc(-c2cc(C(F)(F)F)nn2-c2ccc(S(N)(=O)=O)cc2)cc1 [celecoxib] | – | – | – | – | – | – | – | – | – | – | – | comparable efficacy to compounds 1, 2, 3 and 5 | – | – | – | – | –
7 | COc1ccc2c(c1)c(CC(=O)O)c(C)n2C(=O)c1ccc(Cl)cc1 [Indomethacin, reference compound] | 60.4 ± 4.27 | 79.8 ± 5.9 | 1 | – | 85.9 ± 2.58 | 0.93 | – | 89.5 ± 4.45 | – | 1.32 | 0.89 | – | significantly decreased the migratory ability | – | – | – | –
8 | O=C(O)Cc1ccccc1Nc1c(Cl)cccc1Cl [Diclofenac, reference compound] | 79.1 ± 3.68 | – | – | – | 57.2 ± 3.03 | – | – | 75 ± 3.98 | – | – | – | – | – | – | – | – | –
9 | COC(=O)CNC(=O)c1cc(C(C)(C)C)c(O)c(C(C)(C)C)c1 [Compound 5] | 51.7 ± 1.78 | > 100 | – | – | 41.2 ± 2.88 | > 2.43 | – | 81.6 ± 2.77 | – | > 1.94 | > 1.22 | – | – | 7.12 ± 1.43% | 9.11 ± 0.27% | 132 ± 3.5 | significantly inactivated HT-29 cells
10 | CCOc1ccccc1NC(=O)N(C)C [Compound 8] | > 100 | > 100 | – | – | > 100 | – | – | > 100 | – | – | – | – | – | – | – | – | –
11 | COc1ccc2c(c1)c(CNC(=O)NO)c(C)n2C(=O)c1ccc(Cl)cc1 [Compound 1] | 4.97 ± 0.78 | 9.68 ± 2.34 | 1 | – | 12.8 ± 1.11 | 0.76 | – | 9.78 ± 0.68 | – | 1.95 | 0.99 | – | – | 3.20% and 3.20 ± 0.99% | 5.08% and 5.08 ± 2.46% | 215 ± 4.9 | –
12 | CC(NC(=O)NO)c1ccc(-c2ccccc2)c(F)c1 (stereo not drawn) [Compound 2] | 64.8 ± 2.76 | 69.1 ± 3.07 | 1 | – | 48.7 ± 4.6 | 1.42 | – | 82.4 ± 4.25 | – | 1.07 | 0.84 | – | – | 7.47 ± 2.14% | 11.61 ± 3.06% | 386 ± 11.8 | –
13 | CC(=O)N(O)C(C)c1ccc(CC(C)C)cc1 (stereo not drawn) [Compound 11] | 82 ± 2.34 | 57.1 ± 3.8 | 1 | – | 63 ± 3.8 | 0.91 | – | 84.1 ± 3.43 | – | 0.70 | 0.68 | – | – | – | – | – | –
14 | CC(C)(C)c1cc(/C=C2\SC(=S)N(N)C2=O)cc(C(C)(C)C)c1O [Compound 13] | 2.21 ± 0.12 | 57.1 ± 3.8 | 1 | – | 1.8 ± 0.1 | 31.72 | – | 12.4 ± 1.95 | – | 25.84 | 4.60 | – | – | – | – | – | –
